Assay results from the NIST ThermoML archive (doi:10.1016/j.jct.2017.03.026).
Values joined by “and” are separate entries in the source; they are usually repeats but may differ in a detail not shown here. Identical values can stand only once. Numbers after ± are expanded uncertainties.

Assay: molar heat capacity at constant pressure
Details: 101.33 kPa, Crystal, Small (less than 1 g) adiabatic calorimetry

O.O.O.O.O.O=S(=O)([O-])[O-].[Cu+2] [copper(II) sulfate pentahydrate]
Details	molar heat capacity at constant pressure
287.75 K	289.04 ± 1.3 J/K/mol
287.82 K	289.61 ± 1.3 J/K/mol
288.14 K	289.34 ± 1.3 J/K/mol
288.18 K	290.46 ± 1.3 J/K/mol
288.42 K	289.31 ± 1.3 J/K/mol
288.47 K	290.31 ± 1.3 J/K/mol
288.59 K	291.83 ± 1.3 J/K/mol
288.8 K	291.86 ± 1.3 J/K/mol
289.09 K	290.24 ± 1.3 J/K/mol
289.13 K	293.01 ± 1.3 J/K/mol
289.48 K	297.45 ± 1.3 J/K/mol
289.75 K	292.88 ± 1.3 J/K/mol
289.76 K	282.28 ± 1 J/K/mol and 282.25 ± 1 J/K/mol and 292.61 ± 1.3 J/K/mol
289.83 K	290.48 ± 1.3 J/K/mol
290 K	282.3 ± 1 J/K/mol
290.23 K	291.98 ± 1.3 J/K/mol
290.44 K	291.33 ± 1.3 J/K/mol
290.57 K	288.74 ± 1.3 J/K/mol
290.91 K	292.31 ± 1.3 J/K/mol and 292.23 ± 1.3 J/K/mol
291.11 K	292.78 ± 1.3 J/K/mol and 291.01 ± 1.3 J/K/mol
291.26 K	298.2 ± 1.3 J/K/mol
291.62 K	292.93 ± 1.3 J/K/mol
291.78 K	291.86 ± 1.3 J/K/mol
291.96 K	292.13 ± 1.3 J/K/mol
292.07 K	282.87 ± 1 J/K/mol
292.1 K	293.31 ± 1.3 J/K/mol
292.31 K	293.26 ± 1.3 J/K/mol
292.46 K	294.11 ± 1.3 J/K/mol
292.51 K	284.12 ± 1 J/K/mol
292.65 K	291.23 ± 1.3 J/K/mol
292.99 K	292.66 ± 1.3 J/K/mol
293.15 K	293.46 ± 1.3 J/K/mol
293.27 K	294.35 ± 1.3 J/K/mol
293.33 K	294.9 ± 1.3 J/K/mol
293.67 K	295.88 ± 1.3 J/K/mol
293.82 K	293.83 ± 1.3 J/K/mol
294.03 K	294.9 ± 1.3 J/K/mol and 295.65 ± 1.3 J/K/mol
294.37 K	295.73 ± 1.3 J/K/mol
294.44 K	295.25 ± 1.3 J/K/mol
294.48 K	285.79 ± 1 J/K/mol
294.5 K	295.03 ± 1.3 J/K/mol
294.72 K	294.11 ± 1.3 J/K/mol
295.06 K	293.36 ± 1.3 J/K/mol
295.25 K	295.78 ± 1.3 J/K/mol
295.26 K	286 ± 1 J/K/mol
295.4 K	295.15 ± 1.3 J/K/mol
295.61 K	296.03 ± 1.3 J/K/mol
295.81 K	299.05 ± 1.3 J/K/mol
295.94 K	296.5 ± 1.3 J/K/mol
296.17 K	298.85 ± 1.3 J/K/mol
296.52 K	298.75 ± 1.3 J/K/mol
296.64 K	295.93 ± 1.3 J/K/mol
296.79 K	296.15 ± 1.3 J/K/mol
296.84 K	287.36 ± 1 J/K/mol
296.88 K	296.35 ± 1.3 J/K/mol
296.93 K	297 ± 1.3 J/K/mol
297.22 K	297.15 ± 1.3 J/K/mol
297.32 K	296.23 ± 1.3 J/K/mol
297.57 K	297.23 ± 1.3 J/K/mol
297.91 K	299.05 ± 1.3 J/K/mol
297.94 K	297.85 ± 1.3 J/K/mol
298 K	296.85 ± 1.3 J/K/mol
298.02 K	287.88 ± 1 J/K/mol
298.15 K	288 ± 1 J/K/mol
298.25 K	298.42 ± 1.3 J/K/mol
298.59 K	299.17 ± 1.3 J/K/mol
298.68 K	299.05 ± 1.3 J/K/mol
298.94 K	299.4 ± 1.3 J/K/mol
299.12 K	298.65 ± 1.3 J/K/mol
299.23 K	288.76 ± 1 J/K/mol
299.29 K	300.47 ± 1.3 J/K/mol
299.37 K	298.15 ± 1.3 J/K/mol
299.64 K	299.5 ± 1.3 J/K/mol
299.82 K	299.2 ± 1.3 J/K/mol
300 K	289.3 ± 1.1 J/K/mol
300.06 K	299.2 ± 1.3 J/K/mol
300.3 K	299.45 ± 1.3 J/K/mol
300.75 K	298.85 ± 1.3 J/K/mol
300.77 K	289.98 ± 1.1 J/K/mol
301.44 K	299.02 ± 1.3 J/K/mol
301.47 K	300.17 ± 1.3 J/K/mol
301.59 K	289.49 ± 1 J/K/mol
302.12 K	300.57 ± 1.3 J/K/mol
302.65 K	301.05 ± 1.3 J/K/mol
302.7 K	301.5 ± 1.3 J/K/mol
302.82 K	300.42 ± 1.3 J/K/mol
303.5 K	300.72 ± 1.3 J/K/mol
303.53 K	291.77 ± 1.1 J/K/mol
303.83 K	301.92 ± 1.3 J/K/mol
303.92 K	292.06 ± 1 J/K/mol
304.18 K	301.47 ± 1.3 J/K/mol
304.87 K	301.52 ± 1.3 J/K/mol
305.01 K	302.77 ± 1.3 J/K/mol
305.55 K	302.32 ± 1.3 J/K/mol
305.56 K	303.47 ± 1.3 J/K/mol
306.19 K	303.64 ± 1.3 J/K/mol
306.28 K	293.59 ± 1.1 J/K/mol
306.3 K	293.93 ± 1.1 J/K/mol and 304.42 ± 1.3 J/K/mol
306.99 K	304.54 ± 1.3 J/K/mol
307.44 K	304.69 ± 1.3 J/K/mol
307.7 K	304.19 ± 1.3 J/K/mol
308.38 K	304.52 ± 1.3 J/K/mol
308.41 K	305.57 ± 1.4 J/K/mol
308.62 K	305.54 ± 1.4 J/K/mol
308.68 K	295.75 ± 1.1 J/K/mol
309.04 K	295.5 ± 1.1 J/K/mol
309.07 K	305.39 ± 1.3 J/K/mol
309.75 K	305.67 ± 1.4 J/K/mol
309.8 K	305.39 ± 1.3 J/K/mol
310 K	296 ± 1.1 J/K/mol
310.43 K	305.52 ± 1.3 J/K/mol
310.97 K	306.74 ± 1.4 J/K/mol
311.08 K	296.13 ± 1.1 J/K/mol
311.11 K	306.24 ± 1.4 J/K/mol
311.25 K	307.59 ± 1.4 J/K/mol
311.79 K	306.69 ± 1.4 J/K/mol
311.8 K	297.26 ± 1.1 J/K/mol
312.15 K	307.81 ± 1.4 J/K/mol
312.47 K	307.31 ± 1.4 J/K/mol
313.16 K	307.84 ± 1.4 J/K/mol
313.33 K	308.96 ± 1.4 J/K/mol
313.44 K	298.8 ± 1.1 J/K/mol
313.84 K	308.56 ± 1.4 J/K/mol
314.07 K	309.84 ± 1.4 J/K/mol
314.51 K	309.76 ± 1.4 J/K/mol
314.52 K	309.11 ± 1.4 J/K/mol
314.56 K	298.99 ± 1.1 J/K/mol
315.19 K	310.48 ± 1.4 J/K/mol
315.69 K	310.88 ± 1.4 J/K/mol
315.85 K	300.25 ± 1.1 J/K/mol
315.89 K	310.18 ± 1.4 J/K/mol
316.57 K	310.56 ± 1.4 J/K/mol
316.88 K	312.41 ± 1.4 J/K/mol and 311.61 ± 1.4 J/K/mol
317.31 K	309.31 ± 1.3 J/K/mol
317.53 K	300.52 ± 1.1 J/K/mol
317.99 K	311.11 ± 1.4 J/K/mol
318.06 K	312.53 ± 1.4 J/K/mol
318.28 K	301.47 ± 1.1 J/K/mol
318.66 K	311.58 ± 1.4 J/K/mol
319.25 K	313.46 ± 1.4 J/K/mol
319.34 K	313.53 ± 1.4 J/K/mol
319.69 K	314.25 ± 1.4 J/K/mol
320 K	302.2 ± 1.1 J/K/mol
320.02 K	313.28 ± 1.4 J/K/mol
320.3 K	302.56 ± 1.1 J/K/mol
320.43 K	313.61 ± 1.4 J/K/mol
320.7 K	312.78 ± 1.4 J/K/mol
320.71 K	302.82 ± 1.1 J/K/mol
321.37 K	314.2 ± 1.4 J/K/mol
321.6 K	312.51 ± 1.4 J/K/mol
322.05 K	315.53 ± 1.4 J/K/mol
322.49 K	315.5 ± 1.4 J/K/mol
322.74 K	316.33 ± 1.4 J/K/mol
322.78 K	316.4 ± 1.4 J/K/mol
323.07 K	304.17 ± 1.1 J/K/mol
323.15 K	304.37 ± 1.1 J/K/mol
323.43 K	315.9 ± 1.4 J/K/mol
323.97 K	317.18 ± 1.4 J/K/mol
324.11 K	315.95 ± 1.4 J/K/mol
